For four compounds, remaining activity results are on record in publication PMC6757289, “Design and Characterization of SGK3-PROTAC1, an Isoform Specific SGK3 Kinase PROTAC Degrader” (ACS Chemical Biology, 2019).

Read-outs that look alike come from different tables or passages of the source.

Common to all, as to assay: kinase profiling panel
What all share (assay type): biochemical
Common to all, as to details: read-out: % Activity Remaining

One experiment concerns the target T1, DDR2 (Homo sapiens, UniProt Q16832).
T1 sequence (Q16832 22-855): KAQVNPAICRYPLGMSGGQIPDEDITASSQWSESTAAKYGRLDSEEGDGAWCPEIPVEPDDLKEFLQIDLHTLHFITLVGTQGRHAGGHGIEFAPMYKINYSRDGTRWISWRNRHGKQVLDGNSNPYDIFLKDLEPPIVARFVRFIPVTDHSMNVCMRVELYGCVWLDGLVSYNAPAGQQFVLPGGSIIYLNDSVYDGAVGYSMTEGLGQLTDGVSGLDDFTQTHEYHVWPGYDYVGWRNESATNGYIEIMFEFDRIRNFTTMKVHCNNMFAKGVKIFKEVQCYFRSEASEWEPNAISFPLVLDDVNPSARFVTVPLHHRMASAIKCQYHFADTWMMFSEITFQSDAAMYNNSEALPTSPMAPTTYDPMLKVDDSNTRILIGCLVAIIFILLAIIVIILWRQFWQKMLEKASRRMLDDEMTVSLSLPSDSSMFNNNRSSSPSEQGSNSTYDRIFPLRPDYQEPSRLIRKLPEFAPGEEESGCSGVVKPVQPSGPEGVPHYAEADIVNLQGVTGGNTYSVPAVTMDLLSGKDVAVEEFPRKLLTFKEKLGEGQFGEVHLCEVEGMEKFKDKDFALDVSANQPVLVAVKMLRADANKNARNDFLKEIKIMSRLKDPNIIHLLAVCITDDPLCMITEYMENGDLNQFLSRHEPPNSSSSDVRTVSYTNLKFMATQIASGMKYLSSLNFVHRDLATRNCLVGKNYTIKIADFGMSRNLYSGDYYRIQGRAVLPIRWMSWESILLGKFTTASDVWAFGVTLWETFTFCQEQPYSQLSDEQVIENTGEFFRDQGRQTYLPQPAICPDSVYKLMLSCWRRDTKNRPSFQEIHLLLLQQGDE
From the text:
(§1) Protein kinase profiling against a Dundee panel of 140 protein kinases was undertaken at the International Centre for Protein Kinase Profiling. The result for each kinase was presented as a mean kinase activity of the reaction taken in triplicate relative to a control sample treated with DMSO. Assay conditions and abbreviations are available at http://www.kinase-screen.mrc.ac.uk.

The target in the next experiment is ERK5 (Homo sapiens, UniProt Q13164).
Sequence of ERK5 (Q13164 whole entry): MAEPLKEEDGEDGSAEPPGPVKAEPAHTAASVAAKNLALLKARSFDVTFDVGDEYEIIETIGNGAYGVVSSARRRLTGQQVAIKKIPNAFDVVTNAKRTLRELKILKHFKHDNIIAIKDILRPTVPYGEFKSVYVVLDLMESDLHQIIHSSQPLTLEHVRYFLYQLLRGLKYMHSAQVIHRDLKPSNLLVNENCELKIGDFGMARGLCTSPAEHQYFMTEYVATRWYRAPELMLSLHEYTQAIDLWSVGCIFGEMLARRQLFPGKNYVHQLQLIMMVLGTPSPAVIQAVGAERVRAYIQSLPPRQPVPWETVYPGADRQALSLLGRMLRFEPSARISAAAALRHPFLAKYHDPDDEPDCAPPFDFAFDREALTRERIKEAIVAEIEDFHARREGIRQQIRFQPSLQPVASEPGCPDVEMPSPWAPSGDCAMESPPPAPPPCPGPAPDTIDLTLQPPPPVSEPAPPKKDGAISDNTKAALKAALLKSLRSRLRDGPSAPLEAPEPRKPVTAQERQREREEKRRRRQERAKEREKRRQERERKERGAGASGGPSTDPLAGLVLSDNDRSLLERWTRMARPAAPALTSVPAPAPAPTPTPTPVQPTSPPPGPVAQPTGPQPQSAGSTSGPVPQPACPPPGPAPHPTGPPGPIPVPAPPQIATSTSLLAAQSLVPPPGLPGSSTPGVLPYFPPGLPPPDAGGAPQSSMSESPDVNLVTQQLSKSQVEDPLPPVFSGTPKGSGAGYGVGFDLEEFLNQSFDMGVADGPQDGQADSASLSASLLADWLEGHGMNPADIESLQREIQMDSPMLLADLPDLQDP
Text: as §1

For a further experiment, the target named is T2, IKK epsilon (Homo sapiens, UniProt Q14164).
T2 sequence (Q14164 1-716): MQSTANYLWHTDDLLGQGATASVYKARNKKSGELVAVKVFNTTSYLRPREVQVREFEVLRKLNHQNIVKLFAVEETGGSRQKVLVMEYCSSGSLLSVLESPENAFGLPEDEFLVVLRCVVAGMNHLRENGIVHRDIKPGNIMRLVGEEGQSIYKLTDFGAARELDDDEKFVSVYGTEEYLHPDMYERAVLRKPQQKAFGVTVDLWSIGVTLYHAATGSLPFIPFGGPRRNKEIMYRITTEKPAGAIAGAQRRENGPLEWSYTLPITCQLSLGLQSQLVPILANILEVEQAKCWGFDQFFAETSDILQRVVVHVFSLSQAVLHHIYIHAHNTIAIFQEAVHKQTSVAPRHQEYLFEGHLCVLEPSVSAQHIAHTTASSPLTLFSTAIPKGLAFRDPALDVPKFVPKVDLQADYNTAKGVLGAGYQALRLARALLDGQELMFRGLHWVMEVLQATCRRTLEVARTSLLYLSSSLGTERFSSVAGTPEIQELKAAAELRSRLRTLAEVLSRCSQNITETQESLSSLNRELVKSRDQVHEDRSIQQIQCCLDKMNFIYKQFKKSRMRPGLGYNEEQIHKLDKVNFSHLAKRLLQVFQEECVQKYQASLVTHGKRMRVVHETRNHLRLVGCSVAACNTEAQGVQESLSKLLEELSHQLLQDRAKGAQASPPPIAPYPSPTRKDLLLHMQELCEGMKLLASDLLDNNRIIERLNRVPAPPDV
Text: as §1

Another experiment deals with MAP4K5 (Homo sapiens, UniProt Q9Y4K4).
Text: as §1

For a further experiment, the target named is MEKK1 (Homo sapiens, UniProt Q13233).
Sequence of MEKK1 (Q13233 whole entry): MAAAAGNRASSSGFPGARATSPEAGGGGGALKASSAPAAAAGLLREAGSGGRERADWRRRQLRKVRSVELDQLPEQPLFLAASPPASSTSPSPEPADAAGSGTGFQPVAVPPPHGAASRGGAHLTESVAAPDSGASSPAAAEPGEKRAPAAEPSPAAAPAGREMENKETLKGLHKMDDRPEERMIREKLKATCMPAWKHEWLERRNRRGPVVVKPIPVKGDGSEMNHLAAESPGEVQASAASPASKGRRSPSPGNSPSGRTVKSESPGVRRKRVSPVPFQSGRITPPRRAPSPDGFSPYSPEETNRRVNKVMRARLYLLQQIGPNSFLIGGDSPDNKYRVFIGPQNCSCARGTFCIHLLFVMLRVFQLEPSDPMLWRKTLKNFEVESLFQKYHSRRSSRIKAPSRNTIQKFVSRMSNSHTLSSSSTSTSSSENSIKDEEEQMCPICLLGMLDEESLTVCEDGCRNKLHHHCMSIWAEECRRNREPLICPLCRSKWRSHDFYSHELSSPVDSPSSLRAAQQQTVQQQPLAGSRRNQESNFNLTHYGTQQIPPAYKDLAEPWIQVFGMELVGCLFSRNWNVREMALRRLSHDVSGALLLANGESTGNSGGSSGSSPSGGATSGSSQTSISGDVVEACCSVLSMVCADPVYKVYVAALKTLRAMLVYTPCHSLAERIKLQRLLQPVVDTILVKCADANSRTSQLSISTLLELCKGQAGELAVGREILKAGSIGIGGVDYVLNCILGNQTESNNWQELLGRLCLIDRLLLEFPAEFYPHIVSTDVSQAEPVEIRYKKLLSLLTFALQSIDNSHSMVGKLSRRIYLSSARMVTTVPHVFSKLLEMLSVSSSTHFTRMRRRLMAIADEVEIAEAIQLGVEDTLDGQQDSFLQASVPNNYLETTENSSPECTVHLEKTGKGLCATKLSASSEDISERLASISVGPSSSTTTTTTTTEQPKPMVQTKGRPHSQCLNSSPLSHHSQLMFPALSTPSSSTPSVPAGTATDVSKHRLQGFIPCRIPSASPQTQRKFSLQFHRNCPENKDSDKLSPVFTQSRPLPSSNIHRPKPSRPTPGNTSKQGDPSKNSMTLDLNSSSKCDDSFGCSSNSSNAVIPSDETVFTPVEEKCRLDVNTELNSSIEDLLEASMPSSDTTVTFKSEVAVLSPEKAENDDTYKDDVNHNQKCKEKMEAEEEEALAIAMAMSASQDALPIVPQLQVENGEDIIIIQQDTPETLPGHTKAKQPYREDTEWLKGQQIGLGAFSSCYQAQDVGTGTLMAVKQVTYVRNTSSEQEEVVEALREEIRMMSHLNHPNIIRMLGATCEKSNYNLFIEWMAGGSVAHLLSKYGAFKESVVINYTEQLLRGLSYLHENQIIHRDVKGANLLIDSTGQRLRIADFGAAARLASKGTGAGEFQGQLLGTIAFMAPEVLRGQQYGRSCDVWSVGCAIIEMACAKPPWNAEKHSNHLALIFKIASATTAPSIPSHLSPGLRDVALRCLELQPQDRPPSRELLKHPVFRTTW
Text: as §1

The next experiment addresses MSK1 (Homo sapiens, UniProt O75582).
Text: as §1

The target of another experiment is PAK4 (Homo sapiens, UniProt O96013).
Text: as §1

A further experiment concerns the target PAK6 (Homo sapiens, UniProt Q9NQU5).
Text: as §1

Another experiment has as its target RSK1 (Homo sapiens, UniProt Q15418).
Text: as §1

For another experiment, the target named is T3, TGFBR1 (Homo sapiens, UniProt P36897).
T3 sequence (P36897 34-503): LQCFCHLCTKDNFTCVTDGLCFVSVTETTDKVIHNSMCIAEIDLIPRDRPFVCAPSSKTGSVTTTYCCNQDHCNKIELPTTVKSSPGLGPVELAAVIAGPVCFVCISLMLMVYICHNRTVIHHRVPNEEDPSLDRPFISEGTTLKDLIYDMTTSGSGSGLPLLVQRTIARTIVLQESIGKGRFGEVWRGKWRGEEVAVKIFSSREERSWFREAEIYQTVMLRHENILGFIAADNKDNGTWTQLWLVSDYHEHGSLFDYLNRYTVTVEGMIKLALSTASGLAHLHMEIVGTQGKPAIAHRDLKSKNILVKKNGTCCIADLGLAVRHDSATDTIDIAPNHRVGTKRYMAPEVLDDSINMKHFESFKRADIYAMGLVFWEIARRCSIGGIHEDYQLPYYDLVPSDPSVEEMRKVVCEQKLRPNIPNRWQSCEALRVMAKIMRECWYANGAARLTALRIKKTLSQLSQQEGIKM
Text: as §1

Sequence of PAK6 (Q9NQU5 whole entry): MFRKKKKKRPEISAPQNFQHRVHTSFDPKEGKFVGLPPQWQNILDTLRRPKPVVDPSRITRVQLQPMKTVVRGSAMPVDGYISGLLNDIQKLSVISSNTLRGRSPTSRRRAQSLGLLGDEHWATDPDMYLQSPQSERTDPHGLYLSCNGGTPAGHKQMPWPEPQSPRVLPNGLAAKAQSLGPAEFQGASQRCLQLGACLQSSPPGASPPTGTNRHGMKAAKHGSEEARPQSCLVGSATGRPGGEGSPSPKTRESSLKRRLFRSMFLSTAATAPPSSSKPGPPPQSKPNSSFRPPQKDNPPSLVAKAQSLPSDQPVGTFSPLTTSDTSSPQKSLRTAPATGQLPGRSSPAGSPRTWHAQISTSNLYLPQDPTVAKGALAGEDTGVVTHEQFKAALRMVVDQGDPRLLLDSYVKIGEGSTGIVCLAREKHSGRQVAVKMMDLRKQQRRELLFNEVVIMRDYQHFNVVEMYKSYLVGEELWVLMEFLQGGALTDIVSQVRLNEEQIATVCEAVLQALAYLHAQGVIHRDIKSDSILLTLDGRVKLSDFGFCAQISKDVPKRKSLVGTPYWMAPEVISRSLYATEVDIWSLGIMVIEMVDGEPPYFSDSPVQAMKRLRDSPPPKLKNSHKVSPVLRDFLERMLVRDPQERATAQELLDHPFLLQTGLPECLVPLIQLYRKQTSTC
Sequence of RSK1 (Q15418 whole entry): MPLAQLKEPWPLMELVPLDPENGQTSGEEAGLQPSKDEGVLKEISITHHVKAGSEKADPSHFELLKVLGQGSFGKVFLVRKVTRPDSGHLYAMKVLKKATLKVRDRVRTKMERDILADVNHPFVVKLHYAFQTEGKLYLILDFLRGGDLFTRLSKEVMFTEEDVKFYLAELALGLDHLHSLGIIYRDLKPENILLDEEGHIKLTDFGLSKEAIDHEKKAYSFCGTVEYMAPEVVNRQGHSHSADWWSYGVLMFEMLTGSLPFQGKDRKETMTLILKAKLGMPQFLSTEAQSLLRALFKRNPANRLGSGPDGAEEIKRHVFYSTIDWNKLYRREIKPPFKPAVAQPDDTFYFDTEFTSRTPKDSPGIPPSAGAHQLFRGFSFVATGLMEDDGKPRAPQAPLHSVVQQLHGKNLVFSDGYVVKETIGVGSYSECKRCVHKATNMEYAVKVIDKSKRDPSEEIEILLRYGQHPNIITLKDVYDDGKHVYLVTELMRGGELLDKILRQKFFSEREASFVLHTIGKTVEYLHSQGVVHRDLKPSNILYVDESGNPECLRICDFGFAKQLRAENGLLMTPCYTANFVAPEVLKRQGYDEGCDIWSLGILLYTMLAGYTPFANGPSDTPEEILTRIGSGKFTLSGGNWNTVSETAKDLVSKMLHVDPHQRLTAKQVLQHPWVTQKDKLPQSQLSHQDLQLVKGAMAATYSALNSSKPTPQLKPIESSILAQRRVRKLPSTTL
Sequence of MSK1 (O75582 whole entry): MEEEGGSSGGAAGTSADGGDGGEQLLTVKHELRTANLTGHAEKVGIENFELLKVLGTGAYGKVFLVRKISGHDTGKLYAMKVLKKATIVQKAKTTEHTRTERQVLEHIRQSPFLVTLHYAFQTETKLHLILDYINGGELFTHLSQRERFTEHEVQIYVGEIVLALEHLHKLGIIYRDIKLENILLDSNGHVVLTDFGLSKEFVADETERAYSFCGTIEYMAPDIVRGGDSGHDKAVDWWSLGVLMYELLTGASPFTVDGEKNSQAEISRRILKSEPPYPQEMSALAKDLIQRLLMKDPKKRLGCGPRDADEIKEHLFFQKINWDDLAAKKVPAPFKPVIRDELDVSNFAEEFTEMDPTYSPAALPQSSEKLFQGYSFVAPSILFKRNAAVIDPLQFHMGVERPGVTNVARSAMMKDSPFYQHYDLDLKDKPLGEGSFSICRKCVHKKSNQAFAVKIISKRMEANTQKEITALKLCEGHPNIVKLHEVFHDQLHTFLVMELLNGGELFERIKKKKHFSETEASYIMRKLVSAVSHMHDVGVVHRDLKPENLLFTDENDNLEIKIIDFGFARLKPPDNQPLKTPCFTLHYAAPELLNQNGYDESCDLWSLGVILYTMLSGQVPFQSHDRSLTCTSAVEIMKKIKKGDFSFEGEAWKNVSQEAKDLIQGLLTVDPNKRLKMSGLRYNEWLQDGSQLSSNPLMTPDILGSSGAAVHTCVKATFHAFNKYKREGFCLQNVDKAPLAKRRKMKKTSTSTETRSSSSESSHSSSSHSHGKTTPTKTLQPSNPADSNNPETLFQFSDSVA

With `COc1ccc(Cl)c(S(=O)(=O)Nc2ccc(-c3nc(OC[C@H]4CNCCO4)c4c(C)n[nH]c4n3)cc2)c1` [290-R, reference compound], the remaining activity at 1 µM on DDR2 was found to be 80%; at ERK5, 84%; on IKK epsilon, 34%; at MAP4K5, 19%; at MEKK1 it was 112%; on MSK1, 10%. For the same compound, the remaining activity at 1 µM on PAK4 was found to be 91%; at PAK6, 94%; on RSK1 it was 7%; at TGFBR1, 120%.
Consider `Cc1ccc(F)c(S(=O)(=O)Nc2ccc(-c3nc(OC[C@H]4CNCCO4)c4cn[nH]c4n3)cc2)c1` [308-R, reference compound], for which the remaining activity at 1 µM stood at 106% at DDR2; 73% at ERK5; 26% at IKK epsilon; 63% on MAP4K5; 115% on MEKK1; 7% at MSK1. Also, the remaining activity at 1 µM on PAK4 amounted to 102%; on PAK6, 80%; at RSK1, 7%; on TGFBR1, 120%.
For the compound `Cc1ccc(F)c(S(=O)(=O)Nc2ccc(-c3nc(OC[C@H]4CN(CCCCCCOCCOCCOCC(=O)N[C@H](C(=O)N5C[C@H](O)C[C@H]5C(=O)NCc5ccc(-c6scnc6C)cc5)C(C)(C)C)CCO4)c4cn[nH]c4n3)cc2)c1` [SGK3-PROTAC1], the remaining activity at 1 µM on DDR2 (1 µM) was determined as 114%; on ERK5 (1 µM), 102%; at IKK epsilon (1 µM), 108%; on MAP4K5 (1 µM) it was 99%; at MEKK1 (1 µM) it was 124%; at MSK1 (1 µM), 50%. Moreover, the remaining activity at 1 µM on PAK4 (1 µM) was found to be 81%; at PAK6 (1 µM), 98%; on RSK1 (1 µM) it was 83%; at TGFBR1 (1 µM), 124%.
For `Cc1ccc(F)c(S(=O)(=O)Nc2ccc(-c3nc(OC[C@H]4CN(CCCCCCOCCOCCOCC(=O)N[C@H](C(=O)N5C[C@@H](O)C[C@H]5C(=O)NCc5ccc(-c6scnc6C)cc5)C(C)(C)C)CCO4)c4cn[nH]c4n3)cc2)c1` [cisSGK3-PROTAC1], the remaining activity at 1 µM was 134% at DDR2 (1 µM); 108% at ERK5 (1 µM); 99% at IKK epsilon (1 µM); 101% at MAP4K5 (1 µM); 128% on MEKK1 (1 µM); 56% on MSK1 (1 µM). Besides, the remaining activity at 1 µM worked out at 113% on PAK4 (1 µM), 99% on PAK6 (1 µM), 90% at RSK1 (1 µM) and 114% at TGFBR1 (1 µM).

Broadly, the remaining activity is the signal under treatment as a percentage of the control signal.
